Our source for the Kd values is patent US20050165029A1, “Pyrrolopyrimidine derivatives and analogs and their use in the treatment and prevention of diseases” (Ambit Biosciences Corporation, priority 2004, published 2005).

The target in one assay is T1, PDGFR-β (Homo sapiens, UniProt P09619).
T1 construct: made in house; host or cells: T7 bacteriophage display
The experiment in a line: PDGFR-β (DKIN) phage-display competitive binding assay. The protocol: (§1) Described in the exemplary assays below is data from binding with varying kinases. […] The term “ND” represents non-determined values.
Kd values for the interactions between PDGFR-β and candidate small molecule ligands were measured by a phage-display-based competitive binding assay that is described in detail in U.S. Ser. No. 10/406,797 filed 2 Apr. 2003 and incorporated herein by reference, Briefly, T7 phage displaying human PDGFR-β were incubated with an affinity matrix coated with known PDGFR-β inhibitor in the presence of various concentrations of the soluble competitor molecules. […] The Kd for the interaction between the soluble competitor molecule and PDGFR-β is equal to the concentration of soluble competitor molecule that causes a 50% reduction in the number of phage recovered in the eluate compared to a control sample lacking soluble competitor. Since this assay is generic, and any molecule can be used as a soluble competitor, we have determined Kd values for the interaction between PDGFR-β and several small molecules, including those shown below.

For the next assay, the target named is T2, ABL1 (Homo sapiens, UniProt P00519).
T2 construct: made in house; host or cells: T7 bacteriophage display
T2 sequence (P00519 whole entry): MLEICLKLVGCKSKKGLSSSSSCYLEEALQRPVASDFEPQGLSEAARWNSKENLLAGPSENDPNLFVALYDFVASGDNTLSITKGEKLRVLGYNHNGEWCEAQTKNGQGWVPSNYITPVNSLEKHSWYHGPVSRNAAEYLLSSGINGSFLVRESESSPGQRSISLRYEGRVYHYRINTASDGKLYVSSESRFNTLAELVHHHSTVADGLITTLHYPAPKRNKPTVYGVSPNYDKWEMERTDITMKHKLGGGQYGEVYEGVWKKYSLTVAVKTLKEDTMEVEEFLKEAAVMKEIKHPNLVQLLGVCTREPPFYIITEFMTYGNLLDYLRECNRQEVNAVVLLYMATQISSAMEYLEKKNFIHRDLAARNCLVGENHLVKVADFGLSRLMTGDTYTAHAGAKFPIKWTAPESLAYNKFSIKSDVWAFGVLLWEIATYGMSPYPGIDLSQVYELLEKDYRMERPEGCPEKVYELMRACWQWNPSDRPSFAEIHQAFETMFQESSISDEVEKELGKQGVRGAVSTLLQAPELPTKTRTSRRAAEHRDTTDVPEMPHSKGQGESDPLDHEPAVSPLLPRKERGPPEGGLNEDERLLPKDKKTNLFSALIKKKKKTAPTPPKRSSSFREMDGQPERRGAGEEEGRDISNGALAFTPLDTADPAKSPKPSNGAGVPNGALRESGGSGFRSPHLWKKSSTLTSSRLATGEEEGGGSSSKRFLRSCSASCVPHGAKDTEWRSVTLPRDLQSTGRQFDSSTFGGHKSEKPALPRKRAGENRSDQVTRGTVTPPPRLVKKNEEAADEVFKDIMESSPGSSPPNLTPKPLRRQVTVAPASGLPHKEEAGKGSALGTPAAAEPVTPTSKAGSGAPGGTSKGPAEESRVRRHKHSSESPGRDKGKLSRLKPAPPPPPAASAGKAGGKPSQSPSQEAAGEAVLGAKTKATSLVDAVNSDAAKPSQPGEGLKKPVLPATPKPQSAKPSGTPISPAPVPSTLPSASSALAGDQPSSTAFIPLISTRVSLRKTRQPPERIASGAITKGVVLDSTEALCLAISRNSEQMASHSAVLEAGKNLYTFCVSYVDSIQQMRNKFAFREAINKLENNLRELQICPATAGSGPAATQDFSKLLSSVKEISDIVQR
Nature of the assay: ABL1 phage-display competitive binding assay.
Excerpt: (§2) Methods for measuring binding affinities for interactions between small molecules and kinases including FLT3, c-KIT, ABL(T334I) [a.k.a. ABL(T315I)], VEGFR-2 (a.k.a. KDR), and EGFR are described in detail in U.S. application Ser. No. 10/873,835, which is incorporated by reference herein in its entirety. The components of the assays include human kinases expressed as fusions to T7 bacteriophage particles and immobilized ligands that bind to the ATP site of the kinases. […] If the test compound binds the kinase it competes with the immobilized ligand and prevents binding to the solid support. […] The results are read out by quantitating the amount of fusion protein bound to the solid support, which is accomplished by either traditional phage plaque assays or by quantitative PCR (qPCR) using the phage genome as a template. […] The concentration of test molecule that reduces the number of phage bound to the solid support by 50% is equal to the Kd for the interaction between the kinase and the test molecule. Typically, data are collected for twelve concentrations of test compound and, the resultant binding curve is fit to a non-cooperative binding isotherm to calculate Kd.
as §1

In a further assay the target is T3, FLT3 (Homo sapiens, UniProt P36888).
T3 construct: made in house; host or cells: T7 bacteriophage display
T3 sequence (P36888 27-993): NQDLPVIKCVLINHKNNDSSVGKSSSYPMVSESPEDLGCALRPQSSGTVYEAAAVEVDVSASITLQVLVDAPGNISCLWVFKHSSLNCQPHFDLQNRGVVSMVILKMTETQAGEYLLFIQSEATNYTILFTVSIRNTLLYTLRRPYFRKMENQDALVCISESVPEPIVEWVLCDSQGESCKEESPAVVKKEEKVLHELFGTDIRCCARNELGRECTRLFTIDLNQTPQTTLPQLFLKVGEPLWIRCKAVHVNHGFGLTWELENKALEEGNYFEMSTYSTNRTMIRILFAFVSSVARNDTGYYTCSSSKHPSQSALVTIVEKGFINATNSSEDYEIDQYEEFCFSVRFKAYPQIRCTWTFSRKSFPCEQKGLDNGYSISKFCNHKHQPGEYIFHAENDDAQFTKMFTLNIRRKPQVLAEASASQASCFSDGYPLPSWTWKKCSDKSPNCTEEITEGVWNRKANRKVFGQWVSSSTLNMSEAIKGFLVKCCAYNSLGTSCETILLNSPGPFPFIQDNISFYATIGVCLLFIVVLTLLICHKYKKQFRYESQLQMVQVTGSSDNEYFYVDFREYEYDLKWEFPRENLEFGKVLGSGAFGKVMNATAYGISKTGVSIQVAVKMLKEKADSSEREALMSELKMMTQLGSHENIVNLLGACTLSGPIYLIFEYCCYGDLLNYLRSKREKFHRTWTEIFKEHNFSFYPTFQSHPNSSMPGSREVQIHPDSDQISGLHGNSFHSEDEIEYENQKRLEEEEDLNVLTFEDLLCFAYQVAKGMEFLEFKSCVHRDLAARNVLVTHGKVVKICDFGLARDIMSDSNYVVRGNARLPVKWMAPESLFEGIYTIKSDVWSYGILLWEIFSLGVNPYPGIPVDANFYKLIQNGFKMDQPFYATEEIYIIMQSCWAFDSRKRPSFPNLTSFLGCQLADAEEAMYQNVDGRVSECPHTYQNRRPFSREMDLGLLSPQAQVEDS
The experiment in a line: FLT3(DKIN) phage-display competitive binding assay.
Excerpt: as §2, §1

In another assay the target is T4, VEGFR2 (Homo sapiens, UniProt P35968).
T4 construct: made in house; host or cells: T7 bacteriophage display
T4 sequence (P35968 20-1356): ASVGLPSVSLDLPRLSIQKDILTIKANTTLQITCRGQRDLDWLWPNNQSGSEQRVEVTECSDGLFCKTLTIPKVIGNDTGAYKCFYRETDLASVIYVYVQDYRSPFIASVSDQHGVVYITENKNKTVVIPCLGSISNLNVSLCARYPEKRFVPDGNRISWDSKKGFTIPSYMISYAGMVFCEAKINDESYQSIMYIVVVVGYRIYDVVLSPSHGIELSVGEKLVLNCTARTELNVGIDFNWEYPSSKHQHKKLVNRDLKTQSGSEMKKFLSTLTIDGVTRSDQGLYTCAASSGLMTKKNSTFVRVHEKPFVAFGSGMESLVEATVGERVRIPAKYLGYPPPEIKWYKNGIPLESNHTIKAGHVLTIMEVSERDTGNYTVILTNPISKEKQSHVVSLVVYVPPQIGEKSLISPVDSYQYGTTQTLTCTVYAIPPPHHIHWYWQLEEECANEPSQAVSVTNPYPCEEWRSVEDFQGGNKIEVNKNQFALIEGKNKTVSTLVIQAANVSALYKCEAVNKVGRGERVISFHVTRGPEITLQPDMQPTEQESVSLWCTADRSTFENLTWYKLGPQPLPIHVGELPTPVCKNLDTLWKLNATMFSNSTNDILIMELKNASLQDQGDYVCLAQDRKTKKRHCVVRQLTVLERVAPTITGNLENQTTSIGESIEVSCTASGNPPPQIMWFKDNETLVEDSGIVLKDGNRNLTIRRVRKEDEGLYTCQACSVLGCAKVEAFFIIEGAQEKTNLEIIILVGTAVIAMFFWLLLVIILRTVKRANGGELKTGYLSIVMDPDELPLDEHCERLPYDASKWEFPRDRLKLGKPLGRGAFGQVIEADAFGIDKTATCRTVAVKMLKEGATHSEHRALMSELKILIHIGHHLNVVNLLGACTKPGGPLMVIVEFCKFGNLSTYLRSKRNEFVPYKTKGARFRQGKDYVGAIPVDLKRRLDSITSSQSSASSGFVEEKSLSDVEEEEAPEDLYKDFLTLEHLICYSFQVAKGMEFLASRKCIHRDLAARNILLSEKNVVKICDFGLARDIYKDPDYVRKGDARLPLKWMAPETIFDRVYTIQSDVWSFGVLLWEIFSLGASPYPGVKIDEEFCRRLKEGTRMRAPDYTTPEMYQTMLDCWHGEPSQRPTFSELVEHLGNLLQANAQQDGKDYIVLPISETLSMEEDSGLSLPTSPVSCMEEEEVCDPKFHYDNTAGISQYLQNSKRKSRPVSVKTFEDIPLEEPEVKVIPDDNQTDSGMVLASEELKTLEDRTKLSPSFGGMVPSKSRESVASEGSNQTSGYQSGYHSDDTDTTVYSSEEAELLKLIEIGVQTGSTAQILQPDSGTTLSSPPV
The experiment in a line: VEGFR2(DKIN) phage-display competitive binding assay.
Excerpt: as §2, §1

T1 sequence (P09619 33-1106): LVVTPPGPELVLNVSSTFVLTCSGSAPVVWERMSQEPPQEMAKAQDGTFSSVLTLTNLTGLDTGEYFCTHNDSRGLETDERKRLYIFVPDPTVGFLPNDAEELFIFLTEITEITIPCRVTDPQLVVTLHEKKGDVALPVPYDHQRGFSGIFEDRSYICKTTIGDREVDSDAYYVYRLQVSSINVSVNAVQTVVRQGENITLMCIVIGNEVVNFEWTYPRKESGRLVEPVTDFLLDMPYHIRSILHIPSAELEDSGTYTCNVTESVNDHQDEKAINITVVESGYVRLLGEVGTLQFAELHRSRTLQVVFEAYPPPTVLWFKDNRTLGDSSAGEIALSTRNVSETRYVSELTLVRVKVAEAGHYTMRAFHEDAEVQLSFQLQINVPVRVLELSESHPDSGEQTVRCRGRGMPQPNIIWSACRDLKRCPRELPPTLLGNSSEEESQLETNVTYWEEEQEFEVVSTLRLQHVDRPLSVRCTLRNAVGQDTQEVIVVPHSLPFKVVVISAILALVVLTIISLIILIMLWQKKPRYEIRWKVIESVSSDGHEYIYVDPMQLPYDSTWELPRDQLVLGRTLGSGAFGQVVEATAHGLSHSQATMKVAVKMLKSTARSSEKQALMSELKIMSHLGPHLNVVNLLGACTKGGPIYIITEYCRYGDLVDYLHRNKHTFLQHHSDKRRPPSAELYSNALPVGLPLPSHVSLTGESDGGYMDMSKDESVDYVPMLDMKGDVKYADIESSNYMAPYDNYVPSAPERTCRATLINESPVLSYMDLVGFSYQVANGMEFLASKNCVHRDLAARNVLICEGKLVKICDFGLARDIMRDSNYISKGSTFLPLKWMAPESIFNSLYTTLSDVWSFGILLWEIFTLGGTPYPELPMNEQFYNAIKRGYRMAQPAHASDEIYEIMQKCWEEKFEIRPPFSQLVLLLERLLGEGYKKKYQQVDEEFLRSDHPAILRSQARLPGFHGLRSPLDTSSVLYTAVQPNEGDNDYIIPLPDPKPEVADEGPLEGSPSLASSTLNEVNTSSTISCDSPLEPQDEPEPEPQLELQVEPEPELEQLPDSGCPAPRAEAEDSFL

For `COc1ccc(-c2cc3c(Oc4cccc(OC)c4)ncnc3[nH]2)cc1` [Compound D7], on PDGFR-β, the Kd (in general, the constant that tells how readily two partners part at equilibrium) is 100 to 1000 nM.
On ABL1, `Cc1cc(C)cc(Sc2ncnc3[nH]c(-c4ccc(O)cc4)cc23)c1` [Compound J18] had a dissociation constant (Kd) of 1000 to 10000 nM.
Still for that read-out and setting: the same measure for `COc1ccc(-c2cc3c(Sc4cccc(OC)c4)ncnc3[nH]2)cc1` [Compound J9]: 100 to 1000 nM.
On PDGFR-β, `COc1ccc(-c2cc3c(Oc4cccc(C)c4)ncnc3[nH]2)cc1` [Compound D8] showed a Kd of 1000 to 10000 nM.
Take `Cc1ccc(Sc2ncnc3c2cc(-c2ccc(OC(C)C)cc2)n3C(C)C)cc1` [Compound O13]: the Kd at FLT3 lay within 1000 to 10000 nM.
As for `COc1ccc(-c2cc3c(Sc4ccc(Cl)c(Cl)c4)ncnc3[nH]2)cc1` [Compound J3], at ABL1, the Kd is < 100 nM.
On to `Oc1ccc(-c2cc3c(Sc4ccccc4)ncnc3[nH]2)cc1` [Compound L10], for which the Kd at VEGFR2 is > 10000 nM.
On ABL1, `Cc1ccc(-c2cc3c(Sc4cccc(F)c4)ncnc3[nH]2)cc1` [Compound J17] registered a Kd of 1000 to 10000 nM.
On to `COc1cccc(Sc2ncnc3[nH]c(-c4ccc(O)cc4)cc23)c1` [Compound L4], for which the Kd on ABL1 and on VEGFR2 was 100 to 1000 nM each time.
At FLT3, `COc1ccc(-c2cc3c(Sc4ccc(C)cc4)ncnc3n2C)cc1` [Compound O11] came in with a dissociation constant (Kd) of 100 to 1000 nM.
Consider `Oc1ccc(-c2cc3c(Sc4ccc(F)cc4)ncnc3[nH]2)cc1` [Compound L8], for which, at VEGFR2, the dissociation constant Kd was > 10000 nM.
Consider `COc1cccc(-c2cc3c(Oc4ccccc4)ncnc3[nH]2)c1` [Compound D24], for which the figures for the dissociation constant Kd on FLT3 and on PDGFR-β were 100 to 1000 nM and 1000 to 10000 nM, respectively.
`COc1cccc(-c2cc3c(Oc4ccc(Cl)cc4)ncnc3[nH]2)c1` [Compound D22] gave a Kd on PDGFR-β of 100 to 1000 nM.
Turning to `Cc1cccc(Sc2ncnc3[nH]c(-c4ccc(O)cc4)cc23)c1` [Compound L5], the Kd at VEGFR2 was > 10000 nM.
In the case of `COc1ccc(-c2cc3c(Oc4ccc(C)cc4)ncnc3[nH]2)cc1` [Compound D14], the Kd at FLT3 and on PDGFR-β was 1000 to 10000 nM each time.
The compound `CCOc1ccc(-c2cc3c(Sc4ccccc4)ncnc3n2CC)cc1` [Compound O8] registered a Kd at FLT3 of 100 to 1000 nM.
For the compound `COc1cccc(Sc2ncnc3[nH]c(-c4cccc(OC)c4)cc23)c1` [Compound J26], on ABL1, the Kd is 100 to 1000 nM.
Turning to `COc1ccc(-c2cc3c(Sc4ccccc4)ncnc3n2C(C)C)cc1` [Compound O10], the Kd on FLT3 was in the range of 100 to 1000 nM.
The compound `COc1ccc(-c2cc3c(Oc4ccc(Cl)cc4)ncnc3[nH]2)cc1` [Compound D11] had an equilibrium dissociation constant (Kd) at PDGFR-β of 100 to 1000 nM.
Compound `COc1cccc(Oc2ncnc3[nH]c(-c4ccc(O)cc4)cc23)c1` [Compound E4] displayed a Kd at VEGFR2 of 1000 to 10000 nM.
On the same count and under the same terms, under `Oc1ccc(-c2cc3c(Sc4ccc(Cl)cc4)ncnc3[nH]2)cc1` [Compound L7] stands 1000 to 10000 nM.
With `CC(C)Oc1ccc(-c2cc3c(Sc4ccccc4)ncnc3n2C(C)C)cc1` [Compound O9], the Kd at FLT3 was in the range of 100 to 1000 nM.
For `Cc1ccc(Sc2ncnc3[nH]c(-c4ccc(O)cc4)cc23)cc1` [Compound L9], the Kd was 100 to 1000 nM at FLT3, 1000 to 10000 nM at PDGFR-β, 100 to 1000 nM at ABL1 and 100 to 1000 nM at VEGFR2.
In the case of `Clc1ccccc1Sc1ncnc2[nH]ccc12` [Compound F1, 4-(2-Chloro-phenylsulfanyl)-7H-pyrrolo[2,3-d]pyrimidine], the dissociation constant Kd on FLT3 is > 10000 nM.
`COc1ccc(-c2cc3c(Oc4ccc(F)cc4)ncnc3[nH]2)cc1` [Compound D13]: the Kd at FLT3 and on PDGFR-β was 100 to 1000 nM in each case.
On to `CCOc1ccc(-c2cc3c(Sc4ccc(C)cc4)ncnc3n2CC)cc1` [Compound O12], for which the Kd at FLT3 is 100 to 1000 nM.
At FLT3, `COc1ccc(-c2cc3c(Sc4ccccc4)ncnc3n2C)cc1` [Compound O7] registered a Kd of 100 to 1000 nM.
Same read-out and setting: under `COc1ccc(-c2cc3c(Sc4ccc(C)cc4)ncnc3n2C(C)C)cc1` [Compound O14] stands 1000 to 10000 nM.
Consider `COc1ccc(-c2cc3c(Sc4ccc(C)cc4)ncnc3[nH]2)cc1` [Compound J14], for which the Kd at PDGFR-β and on VEGFR2 was 100 to 1000 nM each time.
For the compound `COc1ccc(-c2cc3c(Sc4ccc(Cl)cc4)ncnc3[nH]2)cc1` [Compound J12], on PDGFR-β, the Kd fell in the range of 1000 to 10000 nM.
